Legend:
[1] = cited from earlier work; for λem: as indicated on www.gelifesciences.com
[2] = as indicated on www.gelifesciences.com; cited from earlier work
[3] = Photostability (dye photobleaching under irradiation); type: physicochemical; conditions: for photobleaching: irradiated for an hour at 620 nm, PBS pH 7.0, A620 nm<0.1 (FIG. 7); for photobleached: after 60 minutes of irradiation at 620 nm, PBS pH 7.0, absorbance matched (FIG. 4)
Experimental: Photostability data were collected on a Horiba Jobin Yvon Fluorolog-3 spectrofluorometer (Edison, N.Y.) equipped with a 450 W xenon lamp (Ushio inc. Japan). Dye photobleaching was observed by monitoring the fluorescence emission of absorbance matched dye samples (absorbance <0.1) at an excitation wavelength 620 nm for 60 minutes. […] Thus, CyAm-5 acid has 28% better photostability than Cy5.
Dye samples with the same absorption (A620 nm<0.1) were irradiated for an hour at 620 nm. Both bio-conjugatable new dyes, CyAm-5 acid and CycloCyAm-5 acid with photobleaching of 30% and 12%, respectively, were more photostable than Cy5 (45%).

[4] = Absorption spectra and extinction coefficients of the fluorophores; type: physicochemical; conditions: PBS, pH 7.0
Experimental: Absorption spectra and extinction coefficients of the fluorophores were obtained on a Varian Cary 50-Bio UV-visible spectrophotometer. Extinction coefficients were measured in phosphate-buffered saline (PBS), 10 mM phosphate buffer pH 7.0, […] potassium chloride and 137 mM sodium chloride and were averaged over at least three sets of parallel experiments. For each trail, 2-3 mg of the HPLC-purified dyes were weighed on a Mettler AT201 analytical balance with an error of ±0.01 mg and were dissolved in deionized water using a 10 mL volumetric flask to prepare the stock solutions.
(§1) FIG. 9 summarizes the optical properties of CyAl-5 and CyAl-5.5. Spectra were obtained in phosphate buffered solution, pH 7.0. The extinction coefficients, at the dye absorption maxima, were performed in triplicate. Emission spectra were excited at 620 nm for CyAl-5 and 640 nm for CyAl-5.5. CyAl-5 and CyAl-5.5, Cy5 and Cy5.5 were used as fluorescence standards, respectively. The data are the average of at least 8 replicates and errors were <5%.

[5] = Emission spectra and fluorescence quantum yield; type: physicochemical; conditions: PBS, pH 7.0
Experimental: Emission spectra were collected on a Varian Cary Eclipse fluorescence spectrophotometer. Quantum yield measurements were performed on at least eight trails for each dye derivative with maximum absorption for each sample less than 0.1, using Cy5 as a standard (Φ=0.27) (Mujumdar, R. B., Ernst, L. A., Mujumdar, S. R., Lewis, C. J., and Waggoner, A. S. (1993) Cyanine dye labeling reagents: sulfoindocyanine succinimidyl esters. Bioconjug. Chem. 4, 105-11). The standard deviation for both the extinction coefficient and quantum yield measurements is less than 5%.
as §1

CHO cells = test: Fluorescence labeling and imaging of azido-sugar modified CHO cells by click reaction; type: cell-based, Chinese hamster; conditions: fixed CHO cells
Experimental: Chinese hamster ovary (CHO) cells were maintained in a 5% CO2, water-saturated atmosphere and grown in F12 HAMS medium supplemented with 10% FBS, 1% penstrep and 1% L-glutamine. For biolabeling experiments, the cells were incubated for 2-3 days in the regular medium or medium supplemented with 100 μM Ac4ManNAc (Molecular probes) in an eight-well LabTek II chamber slide (Nunc). The medium was gently aspirated, and the cells were fixed at −20° C. by methanol for 10 min and then acetone for 1 min. […] Fluorescent images were captured on a Nikon Eclipse TE2000-S fluorescence microscope with 40× objective equipped with a Photometrics Cascade 512B CCD camera using excitation and emission filters from Chroma Technology. […]
Cells incubated with azido-sugar supplemented media (top) or unsupplimented media (bottom) are presented after treatment with CyAm-5 alkyne in the presence of Cu(I)/TBTA as catalyst. Cell nuclei stained with DAPI colored blue (left), fluorescence signal from CyAm-5 alkyne colored red (center) and the merged images (right) are shown. […]
FIGS. 6A-6B show fluorescent imaging of CHO cells labeled with CyAm-5 alkyne and controls. […] Cell nuclei stained with DAPI, fluorescence of labeled CyAm-5 alkyne and merge figures of the two above are shown in column left, middle and right, respectively. […]

Row | Compound | λem [1] | λabs [2] | photobleaching [3] | photobleached [3] | also measured
1 | Cy5.5 | 693 nm | 673 nm | – | – | –
2 | CC1(C)C2=C(/C=C(/C=C3\CCC[N+]4=C3C(C)(C)c3cc(S(=O)(=O)O)ccc34)CCC(=O)Nc3ccc(C(=O)O)cc3)CCCN2c2ccc(S(=O)(=O)O)cc21 [CycloCyAm-5 acid] | – | – | 12% | – | –
3 | CCN1/C(=C/C=C(/C=C/C2=[N+](CC)c3ccc(S(=O)(=O)O)cc3C2(C)C)CCC(=O)Nc2ccc(C(=O)O)cc2)C(C)(C)c2cc(S(=O)(=O)O)ccc21 [CyAm-5 acid] | – | – | 30% | 42% | absorption maximum [4]: 642 nm; better photostability / less photobleaching compared to Cy5 ([3]; after an hour irradiation at 620 nm (FIG. 4)): 28%; emission maximum [5]: 658 nm
4 | CCN1/C(=C/C=C/C=C/C2=[N+](CCCCCC(=O)O)c3ccc(S(=O)(=O)O)cc3C2(C)C)C(C)(C)c2cc(S(=O)(=O)[O-])ccc21 [Cy5] | 664 nm | 646 nm | 45% | 54% | quantum yield of standard (Φ) ([1]; Cy5 used as standard, literature value): 0.27
5 | C#Cc1cccc(NC(=O)CCC(/C=C/C2=[N+](CC)c3ccc(S(=O)(=O)O)cc3C2(C)C)=C\C=C2\N(CC)c3ccc(S(=O)(=O)O)cc3C2(C)C)c1 [CyAm-5 alkyne] | – | – | – | – | fluorescence signal of cells bearing azido sialic acid versus control cells (CHO cells; 20 μM dye, Cu(I) catalyst (FIG. 5)): increased fluorescence signal; conditions under which enhancement of fluorescence signal is observed (CHO cells; with or without Cu(I), TBTA, azido-sugar (FIG. 6A-B)): only observed in the presence of both catalyst Cu(I) and azido glycans

— patent publication US8916137B2, “Monofunctional carbocyanine dyes for in vivo and in vitro imaging” (The General Hospital Corporation, priority 2008, dated 2014)
